Assay results published in US12509474B2, “Inhibitors of complement factors and uses thereof” (Annexon, Inc., priority 2020, dated 2025).
Counter-ions that a name gives are not always drawn.

Each compound was assayed against T1, human C1s protein (Homo sapiens, UniProt P09871) (assay: C1s enzymatic assay (hydrolysis of YLGR-Rh110-dPro)). Conditions: substrate YLGR-Rh110-dPro 20 μM, 15 min pre-incubation, 60 min RT, fluorescence.
T1 construct: A104
T1 sequence (P09871 16-688): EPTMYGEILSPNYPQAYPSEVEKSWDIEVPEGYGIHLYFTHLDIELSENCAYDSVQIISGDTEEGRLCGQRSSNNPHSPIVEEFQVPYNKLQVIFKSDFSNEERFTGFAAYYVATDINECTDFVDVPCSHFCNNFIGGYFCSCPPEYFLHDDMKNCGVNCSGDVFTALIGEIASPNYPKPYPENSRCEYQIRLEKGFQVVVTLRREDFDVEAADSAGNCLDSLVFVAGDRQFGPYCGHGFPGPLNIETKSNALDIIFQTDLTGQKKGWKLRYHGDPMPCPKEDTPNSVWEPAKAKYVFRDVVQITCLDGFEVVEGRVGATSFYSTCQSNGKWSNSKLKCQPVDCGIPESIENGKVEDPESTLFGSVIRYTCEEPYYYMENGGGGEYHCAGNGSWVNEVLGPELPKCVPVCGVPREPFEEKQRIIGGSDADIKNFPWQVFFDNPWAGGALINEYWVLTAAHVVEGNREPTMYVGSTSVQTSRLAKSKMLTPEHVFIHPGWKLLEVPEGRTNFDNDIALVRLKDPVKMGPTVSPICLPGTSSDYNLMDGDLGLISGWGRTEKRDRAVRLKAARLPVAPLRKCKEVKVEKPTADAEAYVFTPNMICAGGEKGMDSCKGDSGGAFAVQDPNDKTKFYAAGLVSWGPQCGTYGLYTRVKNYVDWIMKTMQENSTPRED
Type: biochemical
Method: Compound Testing in the C1s Enzymatic Assay
The enzyme cleaves the substrate with the release of Rh110 which is highly fluorescent. C1s inhibitors prevent the hydrolysis of the substrate thus resulting in a decrease of the signal.
On the day of the experiment 0.1 mg/mL BSA (Sigma, B4287) is added fresh to the buffer. The test item stock solutions are serially diluted 1:3 or 1:4 or 1:5 with DMSO, 11-point curves, in a 384-well compound plate. Nafamostat concentration curve is always included in the assay plate as a reference control.
The high controls are prepared dispensing in 0.25 μL DMSO in column 23, rows AH or AP and low controls with 0.25 μL of 0.1 M Nafamostat. […] The YLGR-Rh110-dPro substrate is prepared as 2× of the final assay concentration of 20 μM. 1/well of 2× enzyme solution is dispensed and pre-incubated for 15 min with the compounds. The enzymatic reaction is then started with 5 μL/well of the 2× substrate solution.

Compound | hC1s pIC50
7-(1-hydroxy-3-prop-2-enyl-3,4-dihydro-2,1-benzoxazonin-7-yl)cinnolin-4-amine [Example 148] | 8.64
7-(3-cyclopropyl-1-hydroxy-3,4-dihydro-2,1-benzoxazonin-7-yl)cinnolin-4-amine [Example 147] | 8.38

Same assay, conditions: substrate YLGR-Rh110-dPro 20 μM, 15 min pre-incubation, 60 min RT, fluorescence, read-out: hC1s pIC50 (converted)

Compound | IC50 [nM]
Cc1nnc(N)c2ccc(-c3ccc4c(c3)B(O)OC(C)C4)cc12 (single isomer, unassigned) [Example 72, 6-(1-hydroxy-3-methyl-3,4-dihydro-2,1-benzoxazonin-7-yl)-4-methylphthalazin-1-amine] | 1.02
Cc1nnc(N)c2ccc(-c3ccc4c(c3)B(O)OC(C)C4)cc12 (single isomer, unassigned) [Example 73, 6-(1-hydroxy-3-methyl-3,4-dihydro-2,1-benzoxazonin-7-yl)-4-methylphthalazin-1-amine] | 0.912
CC1Cc2ccc(-c3ccc4c(N)cnnc4c3)cc2B(O)O1 (single isomer, unassigned) [Example 94] | 1.91
CC1Cc2ccc(-c3ccc4c(N)cnnc4c3)cc2B(O)O1 (single isomer, unassigned) [Example 95] | 3.55
CC(C)C1Cc2ccc(-c3ccc4c(N)cnnc4c3)cc2B(O)O1 (single isomer, unassigned) [Example 152] | 3.09
CC(C)C1Cc2ccc(-c3ccc4c(N)cnnc4c3)cc2B(O)O1 (single isomer, unassigned) [Example 153] | 1.66
Nc1cnnc2cc(-c3cc(B(O)O)ccc3OCC3CNC(=O)C3)ccc12 (single isomer, unassigned) [Example 154, [3-(4-aminocinnolin-7-yl)-4-[(5-oxopyrrolidin-3-yl)methoxy]phenyl]boronic Acid] | 1.78
Nc1cnnc2cc(-c3cc(B(O)O)ccc3OCC3CNC(=O)C3)ccc12 (single isomer, unassigned) [Example 155, [3-(4-aminocinnolin-7-yl)-4-[(5-oxopyrrolidin-3-yl)methoxy]phenyl]boronic Acid] | 3.89
Cc1nnc(N)c2ccc(-c3cc(B(O)O)ccc3NC(=O)C3CC(F)(F)CN3)cc12 (stereo in doubt) [Example 81, [3-(1-amino-4-methylphthalazin-6-yl)-4-[[(2S)-4,4-difluoropyrrolidine-2-carbonyl]amino]phenyl]boronic Acid] | 4.57
Nc1nncc2cc(-c3cccc(B(O)O)c3)ccc12 [Example 1, [3-(1-aminophthalazine-6-yl)phenyl]boronic Acid] | 1.17
COc1ccc(B(O)O)cc1-c1ccc2c(N)nncc2c1 [Example 2, [3-(1-aminophthalazin-6-yl)-4-methoxyphenyl]boronic Acid Formic Acid Salt] | 6.31
Cc1nnc(N)c2ccc(-c3cccc(B(O)O)c3)cc12 [Example 4, [3-(1-amino-4-methylphthalazin-6-yl)phenyl]boronic Acid] | 1.51
COc1ccc(B(O)O)cc1-c1ccc2c(N)cnnc2c1 [Example 5, [3-(4-aminocinnolin-7-yl)-4-methoxyphenyl]boronic Acid] | 0.589
COc1ccc(B(O)O)cc1-c1ccc2c(N)nnc(C)c2c1 [Example 7, [3-(1-amino-4-methylphthalazin-6-yl)-4-methoxyphenyl]boronic Acid Formic Acid Salt] | 0.891
COCCOCCOCCOCCOCCOCCOc1ccc(B(O)O)cc1-c1ccc2c(N)cnnc2c1 [Example 8, [3-(4-aminocinnolin-7-yl)-4-[2-[2-[2-[2-[2-(2-methoxyethoxy)ethoxy]ethoxy]ethoxy]ethoxy]ethoxy]phenyl]boronic Acid] | 3.09
CC(C)c1nnc(N)c2ccc(-c3cccc(B(O)O)c3)cc12 [Example 9, [3-(1-amino-4-propan-2-ylphthalazin-6-yl)phenyl]boronic Acid Hydrochloric Acid Salt] | 513
Cc1ccc(B(O)O)cc1-c1ccc2c(N)nnc(C)c2c1 [Example 10, [3-(1-amino-4-methylphthalazin-6-yl)-4-methylphenyl]boronic Acid Formic Acid Salt] | 6.92
Nc1nnc(C2CC2)c2cc(-c3cccc(B(O)O)c3)ccc12 [Example 11, [3-(1-amino-4-cyclopropylphthalazin-6-yl)phenyl]boronic Acid Formic Acid Salt] | 214

Compound | IC50 [nM]
CCc1ccc(B(O)O)cc1-c1ccc2c(N)nnc(C)c2c1 [Example 12, [3-(1-amino-4-methylphthalazin-6-yl)-4-ethylphenyl]boronic Acid Formic Acid Salt] | 8.13
Cc1cc2cc(-c3cccc(B(O)O)c3)ccc2c(N)n1 [Example 13, [3-(1-amino-3-methylisoquinolin-6-yl)phenyl]boronic Acid; Trifluoroacetic Acid Salt] | 37.2
Cc1nnc(N)c2ccc(-c3ccc4c(c3)B(O)OC4)cc12 [Example 14, 6-(1-hydroxy-3H-2,1-benzoxaborol-6-yl)-4-methylphthalazin-1-amine Formic Acid Salt] | 14.1
Cc1nnc(N)c2ccc(-c3cc(B(O)O)ccc3OC(F)(F)F)cc12 [Example 15, [3-(1-amino-4-methylphthalazin-6-yl)-4-(trifluoromethoxy)phenyl]boronic Acid] | 1.7
COCCOCCOCCOCCOCCOCCOc1ccc(B(O)O)cc1-c1ccc2c(N)nnc(C)c2c1 [Example 16, [3-(1-amino-4-methylphthalazin-6-yl)-4-[2-[2-[2-[2-[2-(2-methoxyethoxy)ethoxy]ethoxy]ethoxy]ethoxy]ethoxy]phenyl]boronic Acid] | 4.79
Cc1nnc(N)c2ccc(-c3cncc(B(O)O)c3)cc12 [Example 17, [5-(1-amino-4-methylphthalazin-6-yl)pyridin-3-yl]boronic Acid] | 1.74
Nc1nncc2cc(-c3cc(B(O)O)ccc3NC(=O)c3ccccc3Cl)ccc12 [Example 18, [3-(1-aminophthalazin-6-yl)-4-[(2-chlorobenzoyl)amino]phenyl]boronic Acid Formic Acid Salt] | 5.5
Cc1nnc(N)c2ccc(-c3cc(B(O)O)ccc3F)cc12 [Example 19, [3-(1-amino-4-methylphthalazin-6-yl)-4-fluorophenyl]boronic acid formic acid salt] | 1.35
COc1cc2c(cc1-c1ccc3c(N)nnc(C)c3c1)B(O)OC2 [Example 20, 6-(1-hydroxy-5-methoxy-3H-2,1-benzoxaborol-6-yl)-4-methylphthalazin-1-amine] | 10
COc1ccc(B(O)O)cc1-c1ccc2c(N)nc(C)cc2c1 [Example 22, [3-(1-amino-3-methylisoquinolin-6-yl)-4-methoxyphenyl]boronic Acid] | 269
Cc1nnc(N)c2ccc(-n3cc(B(O)O)cn3)cc12 [Example 23, [1-(1-amino-4-methylphthalazin-6-yl)pyrazol-4-yl]boronic Acid] | 363
COc1cc(F)c(B(O)O)cc1-c1ccc2c(N)nnc(C)c2c1 [Example 25, [5-(1-amino-4-methylphthalazin-6-yl)-2-fluoro-4-methoxyphenyl]boronic Acid] | 1.7
Cc1nnc(N)c2ccc(-c3ccc4c(c3)B(O)OCC4)cc12 [Example 26, Formic Acid Salt] | 2.19
COc1cc(C)c(B(O)O)cc1-c1ccc2c(N)nnc(C)c2c1 [Example 28, [5-(1-amino-4-methylphthalazin-6-yl)-4-methoxy-2-methylphenyl]boronic Acid Formic Acid Salt] | 1.78
Cc1nnc(N)c2ccc(-c3cc(B(O)O)ccc3C#N)cc12 [Example 29, [3-(1-amino-4-methylphthalazin-6-yl)-4-cyanophenyl]boronic Acid] | 1.91
COc1ncc(B(O)O)cc1-c1ccc2c(N)nnc(C)c2c1 [Example 30, [5-(1-amino-4-methylphthalazin-6-yl)-6-methoxypyridin-3-yl]boronic Acid] | 2.04
COc1ccc(B(O)O)cc1-c1cc(F)c2c(N)cnnc2c1 [Example 31, [3-(4-amino-5-fluorocinnoline-7-yl)-4-methoxyphenyl]boronic Acid] | 15.1
COc1cc2c(cc1-c1ccc3c(N)nnc(C)c3c1)B(O)OCC2 [Example 32, 6-(1-hydroxy-6-methoxy-3,4-dihydro-2,1-benzoxazonin-7-yl)-4-methylphthalazin-1-amine Formic Acid Salt] | 4.68
